Measurements taken from ChEMBL document CHEMBL4715735, “Sesquiterpenes from Inula japonica with Inhibitory Effects on Nitric Oxide Production in Murine Macrophage RAW 264.7 Cells” (J Nat Prod, 2016).

Test system: RAW264.7
Assay: Inhibition of LPS-induced NO production in mouse RAW264.7 cells incubated for 24 hrs by Griess reagent based assay
Format: functional, cell-based
Conditions: RAW264.7, 24 h

**Q.** How did the IC50 turn out when `C=C1C(=O)O[C@@H]2C[C@H](C)C(CCC(C)=O)=CC[C@H]12` [TOMENTOSIN] was run?
**A.** 2 µM

**Q.** For `C=C1C(=O)O[C@H]2C[C@H](C)[C@@H]3[C@@H](OC(C)=O)C[C@H](O)[C@@]3(C)C[C@H]12`, which IC50 is on record?
**A.** 2.8 µM

**Q.** How did the IC50 turn out when `C=C1C(=O)O[C@H]2C[C@@H](C)[C@@H]3[C@@H](OC(C)=O)C[C@H](O)[C@]3(C)[C@@H](OC(C)=O)[C@H]12` was run?
**A.** 3.2 µM

**Q.** For `C=C1C(=O)O[C@@H]2CC(C)=C([C@@H](C)CCCOC(C)=O)[C@@H](OC(=O)C[C@H](C)CC)[C@H]12`, which IC50 is on record?
**A.** 6.6 µM

**Q.** With `C=C1C(=O)O[C@H]2C[C@@H](C)[C@@H]3CC[C@H](O)[C@@]3(C)C[C@H]12` [PSEUDOGUAIANOLIDE] as the compound, how does the IC50 read?
**A.** 2.5 µM

**Q.** How did the IC50 turn out when `C=C1C(=O)O[C@H]2C[C@@H](C)[C@@H]3[C@H](OC(C)=O)C[C@H](O)[C@@]3(C)[C@@H](O)[C@H]12` was run?
**A.** 15.4 µM

**Q.** With `C=C1C(=O)O[C@H]2C[C@@H](C)[C@@H]3[C@@H](OC(C)=O)C[C@H](OC(C)=O)[C@@]3(C)[C@@H](O)[C@H]12` as the compound, how does the IC50 read?
**A.** 2.5 µM

**Q.** For `COc1ccc2c(c1)c(CC(=O)O)c(C)n2C(=O)c1ccc(Cl)cc1` [INDOMETHACIN], which IC50 is on record?
**A.** 11.6 µM
